According to patent publication US20230356105A1, “TETRAAZADODECANE BASED CHELATING AGENTS FOR SEPARATION OF RARE EARTH ELEMENTS AND METHOD THEREFOR” (Ustav Organicke Chemie a Biochemie AV CR V.V.I., priority 2020, published 2023):
“And” between values parts separate entries of the source, which are not always exact repeats. Identical values can stand only once. Like-named read-outs stand apart in the source and are kept apart here.

Assays:
Type in all cases: physicochemical
[1] = Separation of binary mixture of rare-earth metals by precipitation using L6 (Example 9); conditions: supernatant; for [mM] M1: with Nd
[2] = Separation of industrially relevant binary mixtures by precipitation using L1, L2 and L3 (Example 10); conditions: supernatant
Experimental: Analogous to Example 7), three sets of reaction mixtures with two metals and either compound L1, L2, or L3 were prepared in a 96-well plate with the following differences: each well was equipped with one PTFE-coated magnetic stir bar, the well plate was sealed with a silicon cover, and the reaction mixtures were stirred on a magnetic stirrer for 2 days at room temperature. Analogous to Example 7), the well plate was then centrifuged and concentrations of the metals were determined using ICP-OES. […] It is evident from the results that certain degrees of enrichment are achieved for very different combinations of metals, and that ligands L1, L2, and L3 have different selectivities for given combinations of metals.

[3] = Separation of Tb/Lu mixture by precipitation using L4 (Example 16); conditions: for Precipitate concentration [mM] Lu / Precipitate concentration [mM] Tb: dissolved to 150 μL
Experimental: The experiment was conducted according to Example 24, with 3 identical reaction mixtures containing Tb, Lu, and compound L4. The experimental procedure was identical to that of Example 24 with the difference being that the dissolution of the precipitate in 100 μL, 1 M HCl was achieved within several minutes. The resulting absolute concentrations of both metals in the supernatants and precipitates, as well as calculated values of the separation factor […] according to formula from Example 11), are summarized in Table 10. […] The average separation factor value was 27.

## O=C(O)CN1CCN(CC(=O)O)CCN(Cc2ccc(-c3ccccc3)cc2)CCN(CC(=O)O)CC1 [L6, 2,2′,2″-(10-([1,1′-biphenyl]-4-ylmethyl)-1,4,7,10-tetraazacyclododecane-1,4,7-triyl)triacetic acid]
[1]; M1=Ce
  [mM] M1: 0.596 mM
  [mM] Nd: 0.556 mM
[1]; M1=Dy
  [mM] M1: 0.459 mM
  [mM] Nd: 0.135 mM
[1]; M1=Er
  [mM] M1: 2.027 mM
  [mM] Nd: 0.702 mM
[1]; M1=Eu
  [mM] M1: 0.711 mM
  [mM] Nd: 0.566 mM
[1]; M1=Gd
  [mM] M1: 0.195 mM
  [mM] Nd: 0.166 mM
[1]; M1=Ho
  [mM] M1: 1.943 mM
  [mM] Nd: 0.618 mM
[1]; M1=La
  [mM] M1: 0.620 mM
  [mM] Nd: 0.606 mM
[1]; M1=Lu
  [mM] M1: 3.231 mM
  [mM] Nd: 0.841 mM
[1]; M1=Nd
  [mM] M1: 0.496 mM
  [mM] Nd: 0.496 mM
[1]; M1=Pr
  [mM] M1: 0.524 mM
  [mM] Nd: 0.559 mM
[1]; M1=Sc
  [mM] M1: 2.414 mM
  [mM] Nd: 0.594 mM
[1]; M1=Sm
  [mM] M1: 0.541 mM
  [mM] Nd: 0.512 mM
[1]; M1=Tb
  [mM] M1: 0.428 mM
  [mM] Nd: 0.178 mM
[1]; M1=Tm
  [mM] M1: 2.914 mM
  [mM] Nd: 0.748 mM
[1]; M1=Y
  [mM] M1: 1.592 mM
  [mM] Nd: 1.463 mM
[1]; M1=Yb
  [mM] M1: 2.243 mM
  [mM] Nd: 0.495 mM

## O=C(O)CN1CCNCCN(CC(=O)O)CCN(Cc2ccc(C(=O)O)cc2)CC1 [L3, 2,2′-(4-(4-carboxybenzyl)-1,4,7,10-tetraazacyklododekane-1,7-diyl)Diacetic Acid]
[2]; M1/M2=Eu/Y
  [mM] M1: 0.016 mM
  [mM] M2: 0.076 mM
[2]; M1/M2=La/Ce
  [mM] M1: 0.111 mM
  [mM] M2: 0.036 mM
[2]; M1/M2=Nd/Ce
  [mM] M1: 0.000 mM
  [mM] M2: 0.745 mM
[2]; M1/M2=Nd/Dy
  [mM] M1: 0.000 mM
  [mM] M2: 0.025 mM
[2]; M1/M2=Nd/La
  [mM] M1: 0.000 mM
  [mM] M2: 0.102 mM
[2]; M1/M2=Nd/Pr
  [mM] M1: 0.000 mM
  [mM] M2: 0.016 mM
[2]; M1/M2=Nd/Tb
  [mM] M1: 0.008 mM
  [mM] M2: 0.008 mM
[2]; M1/M2=Pr/Ce
  [mM] M1: 0.060 mM
  [mM] M2: 0.021 mM
[2]; M1/M2=Pr/Dy
  [mM] M1: 0.018 mM
  [mM] M2: 0.034 mM
[2]; M1/M2=Pr/La
  [mM] M1: 0.014 mM
  [mM] M2: 0.098 mM
[2]; M1/M2=Tb/Dy
  [mM] M1: 0.010 mM
  [mM] M2: 0.027 mM
[2]; M1/M2=Tb/Eu
  [mM] M1: 0.018 mM
  [mM] M2: 0.017 mM
[2]; M1/M2=Tb/Pr
  [mM] M1: 0.015 mM
  [mM] M2: 0.018 mM
[2]; M1/M2=Tb/Y
  [mM] M1: 0.018 mM
  [mM] M2: 0.078 mM

## O=C(O)CN1CCN(CC(=O)O)CCN(Cc2ccc3ccccc3c2)CCN(CC(=O)O)CC1 [L4, 2,2′,2″-(10-(naphthalene-2-ylmethyl)-1,4,7,10-tetraazacyklododekane-1,4,7-triyl)triacetic acid]
[3]
  Supernatant concentration [mM] Lu: 4.26 mM and 4.07 mM and 4.18 mM
  Supernatant concentration [mM] Tb: 1.08 mM and 0.93 mM and 1.19 mM
  Precipitate concentration [mM] Lu: 0.51 mM and 0.61 mM and 0.47 mM
  Precipitate concentration [mM] Tb: 3.74 mM and 3.73 mM and 3.28 mM
[3]; mean
  Precipitate concentration [mM] Lu: 0.53 mM
  Precipitate concentration [mM] Tb: 3.59 mM
  Supernatant concentration [mM] Lu: 4.17 mM
  Supernatant concentration [mM] Tb: 1.07 mM
